What was measured:
[1] = Selectivity ratio of Ki for 5-HT2B receptor (unknown origin) to Ki for rat 5-HT6 receptor
[2] = Selectivity ratio of Ki for 5-HT7 receptor (unknown origin) to Ki for rat 5-HT6 receptor
[3] = molecular target: 5-hydroxytryptamine receptor 6 (Rattus norvegicus, UniProt P31388); experiment: Displacement of [3H] lysergic acid diethylamide from rat 5-HT6 receptor transfected in HEK293 cells after 60 mins by scintillation counter; assay type: cell-based
[4] = molecular target: 5-hydroxytryptamine receptor 6 (Homo sapiens, UniProt P50406); experiment: Agonist activity at 5-HT6 receptor (unknown origin)
[5] = molecular target: T1, Adrenergic receptor alpha-1 (Rattus norvegicus, UniProt P15823+P23944+P43140); experiment: Binding affinity to rat alpha1 adrenergic receptor
T1 sequence (P15823 whole entry): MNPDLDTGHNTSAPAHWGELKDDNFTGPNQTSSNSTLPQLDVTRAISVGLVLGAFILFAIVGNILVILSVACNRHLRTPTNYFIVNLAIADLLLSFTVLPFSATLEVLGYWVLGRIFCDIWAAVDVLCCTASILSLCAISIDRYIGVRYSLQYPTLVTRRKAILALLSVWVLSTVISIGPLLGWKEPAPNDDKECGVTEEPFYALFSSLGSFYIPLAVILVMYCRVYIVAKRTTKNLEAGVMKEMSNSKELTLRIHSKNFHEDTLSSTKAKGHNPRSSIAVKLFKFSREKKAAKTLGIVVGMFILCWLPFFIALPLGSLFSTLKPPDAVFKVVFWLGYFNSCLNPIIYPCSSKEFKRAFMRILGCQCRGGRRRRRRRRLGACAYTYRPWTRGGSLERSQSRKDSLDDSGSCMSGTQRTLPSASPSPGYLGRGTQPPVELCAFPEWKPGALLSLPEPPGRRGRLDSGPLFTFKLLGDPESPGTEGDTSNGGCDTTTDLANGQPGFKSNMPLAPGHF
T1 sequence (P23944 whole entry): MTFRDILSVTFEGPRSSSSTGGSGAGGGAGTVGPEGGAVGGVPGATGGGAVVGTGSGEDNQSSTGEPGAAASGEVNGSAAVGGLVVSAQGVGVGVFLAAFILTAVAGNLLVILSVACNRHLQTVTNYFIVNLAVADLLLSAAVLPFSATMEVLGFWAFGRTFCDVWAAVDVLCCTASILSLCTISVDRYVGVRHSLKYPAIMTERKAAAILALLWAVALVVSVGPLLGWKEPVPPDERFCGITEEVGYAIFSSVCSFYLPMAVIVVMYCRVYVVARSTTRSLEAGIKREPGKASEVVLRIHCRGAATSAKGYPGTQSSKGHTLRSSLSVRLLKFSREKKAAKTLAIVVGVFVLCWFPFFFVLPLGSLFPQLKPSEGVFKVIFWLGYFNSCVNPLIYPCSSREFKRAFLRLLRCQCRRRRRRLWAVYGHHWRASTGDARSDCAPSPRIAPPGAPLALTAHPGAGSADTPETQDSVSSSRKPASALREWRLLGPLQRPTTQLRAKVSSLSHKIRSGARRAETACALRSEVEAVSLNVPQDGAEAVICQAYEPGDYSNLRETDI
T1 sequence (P43140 whole entry): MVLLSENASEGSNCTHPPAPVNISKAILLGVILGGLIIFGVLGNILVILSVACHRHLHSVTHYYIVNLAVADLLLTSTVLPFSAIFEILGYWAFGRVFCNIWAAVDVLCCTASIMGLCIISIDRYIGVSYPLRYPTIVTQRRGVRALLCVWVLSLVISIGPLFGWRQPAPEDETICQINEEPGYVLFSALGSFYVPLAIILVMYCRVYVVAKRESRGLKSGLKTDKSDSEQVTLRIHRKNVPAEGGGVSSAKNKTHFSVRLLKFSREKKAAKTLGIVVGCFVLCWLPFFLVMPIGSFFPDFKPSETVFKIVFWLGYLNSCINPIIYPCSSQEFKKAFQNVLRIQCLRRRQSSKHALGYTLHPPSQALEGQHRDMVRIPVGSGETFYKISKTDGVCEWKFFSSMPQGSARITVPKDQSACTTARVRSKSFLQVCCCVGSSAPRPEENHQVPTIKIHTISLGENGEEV

[6] = molecular target: T2, Adrenergic receptor alpha-2 (Rattus norvegicus, UniProt P22086+P19328+P22909); experiment: Binding affinity to rat alpha2 adrenergic receptor
T2 sequence (P22086 whole entry): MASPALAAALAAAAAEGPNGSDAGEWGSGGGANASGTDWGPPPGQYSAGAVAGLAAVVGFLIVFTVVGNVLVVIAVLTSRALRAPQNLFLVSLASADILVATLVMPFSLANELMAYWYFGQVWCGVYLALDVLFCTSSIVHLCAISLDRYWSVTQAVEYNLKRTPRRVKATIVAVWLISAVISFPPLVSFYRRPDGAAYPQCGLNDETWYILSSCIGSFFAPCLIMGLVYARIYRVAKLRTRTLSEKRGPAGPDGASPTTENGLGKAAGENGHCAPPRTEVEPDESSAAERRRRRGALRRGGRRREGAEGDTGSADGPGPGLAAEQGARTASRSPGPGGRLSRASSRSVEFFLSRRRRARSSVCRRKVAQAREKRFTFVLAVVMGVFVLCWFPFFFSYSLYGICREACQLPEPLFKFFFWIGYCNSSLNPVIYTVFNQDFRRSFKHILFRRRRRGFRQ
T2 sequence (P19328 whole entry): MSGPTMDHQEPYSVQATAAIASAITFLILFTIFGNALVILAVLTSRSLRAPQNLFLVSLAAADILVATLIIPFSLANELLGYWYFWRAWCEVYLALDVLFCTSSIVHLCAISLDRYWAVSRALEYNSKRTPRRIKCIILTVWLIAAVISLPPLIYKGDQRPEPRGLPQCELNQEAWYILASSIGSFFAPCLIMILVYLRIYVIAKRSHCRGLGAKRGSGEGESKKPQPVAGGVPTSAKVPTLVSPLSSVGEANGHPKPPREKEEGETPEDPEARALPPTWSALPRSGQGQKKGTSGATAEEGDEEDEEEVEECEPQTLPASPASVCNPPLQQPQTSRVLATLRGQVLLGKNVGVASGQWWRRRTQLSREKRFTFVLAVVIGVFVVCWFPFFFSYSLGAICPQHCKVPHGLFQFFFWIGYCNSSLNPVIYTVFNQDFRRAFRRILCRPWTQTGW
T2 sequence (P22909 whole entry): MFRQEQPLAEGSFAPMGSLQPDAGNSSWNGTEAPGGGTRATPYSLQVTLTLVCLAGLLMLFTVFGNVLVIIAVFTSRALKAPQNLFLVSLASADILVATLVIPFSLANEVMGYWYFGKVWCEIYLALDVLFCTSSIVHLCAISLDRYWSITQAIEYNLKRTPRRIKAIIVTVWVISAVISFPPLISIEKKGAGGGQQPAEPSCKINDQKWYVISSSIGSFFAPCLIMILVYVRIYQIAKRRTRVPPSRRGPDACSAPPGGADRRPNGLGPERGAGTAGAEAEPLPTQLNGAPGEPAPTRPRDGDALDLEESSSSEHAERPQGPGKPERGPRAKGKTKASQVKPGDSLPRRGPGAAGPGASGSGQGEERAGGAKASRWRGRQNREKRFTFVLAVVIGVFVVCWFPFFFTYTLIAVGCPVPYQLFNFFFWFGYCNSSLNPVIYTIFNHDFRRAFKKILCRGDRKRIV

[7] = molecular target: 5-hydroxytryptamine receptor 7 (Homo sapiens, UniProt P34969); experiment: Binding affinity to 5-HT7 receptor (unknown origin)
[8] = molecular target: 5-hydroxytryptamine receptor 2B (Homo sapiens, UniProt P41595); experiment: Binding affinity to 5-HT2B receptor (unknown origin)
[9] = molecular target: T3, Adrenergic receptor alpha-2 (Homo sapiens, UniProt P08913+P18825+P18089); experiment: Binding affinity to human recombinant alpha2 adrenergic receptor; assay type: protein assay
T3 sequence (P08913 whole entry): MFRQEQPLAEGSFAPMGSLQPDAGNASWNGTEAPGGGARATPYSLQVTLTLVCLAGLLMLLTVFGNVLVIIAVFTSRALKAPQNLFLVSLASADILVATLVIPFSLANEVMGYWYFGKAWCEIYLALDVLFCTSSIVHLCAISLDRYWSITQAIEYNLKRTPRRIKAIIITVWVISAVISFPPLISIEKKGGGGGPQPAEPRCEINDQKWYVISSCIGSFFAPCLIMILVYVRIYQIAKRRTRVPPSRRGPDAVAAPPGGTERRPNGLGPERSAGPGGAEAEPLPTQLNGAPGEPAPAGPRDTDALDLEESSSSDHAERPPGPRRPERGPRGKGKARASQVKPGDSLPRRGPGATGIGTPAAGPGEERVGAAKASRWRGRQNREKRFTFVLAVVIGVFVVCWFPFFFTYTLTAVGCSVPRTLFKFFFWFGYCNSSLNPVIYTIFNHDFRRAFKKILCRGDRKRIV
T3 sequence (P18825 whole entry): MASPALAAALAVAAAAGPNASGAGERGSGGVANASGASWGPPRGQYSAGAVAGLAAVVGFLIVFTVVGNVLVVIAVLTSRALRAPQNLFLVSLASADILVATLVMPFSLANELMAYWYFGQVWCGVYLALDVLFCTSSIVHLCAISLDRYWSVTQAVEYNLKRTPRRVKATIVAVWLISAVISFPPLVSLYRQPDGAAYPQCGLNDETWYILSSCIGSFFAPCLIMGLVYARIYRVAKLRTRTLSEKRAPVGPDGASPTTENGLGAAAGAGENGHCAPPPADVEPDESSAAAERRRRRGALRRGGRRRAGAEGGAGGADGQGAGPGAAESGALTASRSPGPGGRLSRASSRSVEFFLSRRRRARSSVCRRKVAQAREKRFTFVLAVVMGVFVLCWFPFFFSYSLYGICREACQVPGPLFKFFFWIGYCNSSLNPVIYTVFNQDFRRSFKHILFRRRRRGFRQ
T3 sequence (P18089 whole entry): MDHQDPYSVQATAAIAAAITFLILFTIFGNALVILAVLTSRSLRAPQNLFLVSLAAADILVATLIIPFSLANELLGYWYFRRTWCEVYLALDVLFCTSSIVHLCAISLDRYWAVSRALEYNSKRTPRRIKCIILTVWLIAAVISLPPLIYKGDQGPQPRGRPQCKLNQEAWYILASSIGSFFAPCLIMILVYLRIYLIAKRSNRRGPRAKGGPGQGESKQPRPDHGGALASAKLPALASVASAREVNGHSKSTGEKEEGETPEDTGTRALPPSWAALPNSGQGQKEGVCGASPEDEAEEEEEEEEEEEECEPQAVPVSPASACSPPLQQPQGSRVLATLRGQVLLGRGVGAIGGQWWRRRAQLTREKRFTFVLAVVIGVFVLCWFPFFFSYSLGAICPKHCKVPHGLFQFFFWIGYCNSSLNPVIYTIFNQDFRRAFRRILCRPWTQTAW

Homo sapiens [10] = species on record: Homo sapiens; experiment: Selectivity ratio of Ki for human 5-HT1B receptor to Ki for human 5-HT6 receptor
Homo sapiens [11] = species on record: Homo sapiens; experiment: Selectivity ratio of Ki for human 5-HT1D receptor to Ki for human 5-HT6 receptor
Homo sapiens [12] = species on record: Homo sapiens; experiment: Selectivity ratio of Ki for human 5-HT5A receptor to Ki for human 5-HT6 receptor
Homo sapiens [13] = species on record: Homo sapiens; experiment: Selectivity ratio of Ki for human 5-HT1F receptor to Ki for human 5-HT6 receptor
Homo sapiens [14] = species on record: Homo sapiens; experiment: Selectivity ratio of Ki for human 5-HT7 receptor to Ki for human 5-HT6 receptor
Homo sapiens [15] = species on record: Homo sapiens; experiment: Selectivity ratio of Ki for human 5-HT1A receptor to Ki for human 5-HT6 receptor

5-hydroxytryptamine receptor 6 (Homo sapiens, UniProt P50406), sequence (P50406 whole entry): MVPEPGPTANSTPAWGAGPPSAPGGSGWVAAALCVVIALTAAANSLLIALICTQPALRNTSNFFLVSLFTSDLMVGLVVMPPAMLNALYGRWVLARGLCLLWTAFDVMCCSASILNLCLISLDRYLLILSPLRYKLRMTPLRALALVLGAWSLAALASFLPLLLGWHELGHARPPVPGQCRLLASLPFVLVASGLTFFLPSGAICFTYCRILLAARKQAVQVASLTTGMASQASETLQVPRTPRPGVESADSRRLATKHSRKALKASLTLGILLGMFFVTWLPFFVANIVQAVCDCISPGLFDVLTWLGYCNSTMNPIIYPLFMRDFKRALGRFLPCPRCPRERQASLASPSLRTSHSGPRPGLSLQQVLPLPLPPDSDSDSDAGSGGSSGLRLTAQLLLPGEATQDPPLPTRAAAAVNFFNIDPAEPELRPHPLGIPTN
5-hydroxytryptamine receptor 6 (Rattus norvegicus, UniProt P31388), sequence (P31388 whole entry): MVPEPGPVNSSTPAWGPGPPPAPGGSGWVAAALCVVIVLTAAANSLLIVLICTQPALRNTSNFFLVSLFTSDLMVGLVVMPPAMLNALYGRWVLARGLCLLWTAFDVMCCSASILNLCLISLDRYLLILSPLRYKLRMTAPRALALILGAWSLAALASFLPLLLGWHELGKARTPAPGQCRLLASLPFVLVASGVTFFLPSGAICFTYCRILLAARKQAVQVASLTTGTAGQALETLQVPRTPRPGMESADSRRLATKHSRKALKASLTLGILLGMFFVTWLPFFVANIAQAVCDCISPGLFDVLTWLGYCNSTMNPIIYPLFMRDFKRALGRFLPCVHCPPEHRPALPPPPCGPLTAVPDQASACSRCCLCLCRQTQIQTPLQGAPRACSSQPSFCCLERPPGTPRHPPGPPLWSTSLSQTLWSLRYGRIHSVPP
5-hydroxytryptamine receptor 7, sequence (P34969 whole entry): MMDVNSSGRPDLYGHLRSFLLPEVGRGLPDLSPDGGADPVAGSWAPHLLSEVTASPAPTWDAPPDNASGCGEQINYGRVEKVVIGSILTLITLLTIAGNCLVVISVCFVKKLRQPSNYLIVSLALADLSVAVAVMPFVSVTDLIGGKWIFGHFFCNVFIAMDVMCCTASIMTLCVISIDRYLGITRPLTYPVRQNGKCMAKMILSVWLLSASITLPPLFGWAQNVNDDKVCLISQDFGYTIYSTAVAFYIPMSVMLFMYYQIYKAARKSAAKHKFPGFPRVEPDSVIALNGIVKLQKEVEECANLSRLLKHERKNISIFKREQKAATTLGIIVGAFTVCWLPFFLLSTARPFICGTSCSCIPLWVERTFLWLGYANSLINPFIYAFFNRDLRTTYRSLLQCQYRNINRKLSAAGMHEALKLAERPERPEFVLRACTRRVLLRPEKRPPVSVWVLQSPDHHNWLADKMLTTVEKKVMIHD
5-hydroxytryptamine receptor 2B, sequence (P41595 whole entry): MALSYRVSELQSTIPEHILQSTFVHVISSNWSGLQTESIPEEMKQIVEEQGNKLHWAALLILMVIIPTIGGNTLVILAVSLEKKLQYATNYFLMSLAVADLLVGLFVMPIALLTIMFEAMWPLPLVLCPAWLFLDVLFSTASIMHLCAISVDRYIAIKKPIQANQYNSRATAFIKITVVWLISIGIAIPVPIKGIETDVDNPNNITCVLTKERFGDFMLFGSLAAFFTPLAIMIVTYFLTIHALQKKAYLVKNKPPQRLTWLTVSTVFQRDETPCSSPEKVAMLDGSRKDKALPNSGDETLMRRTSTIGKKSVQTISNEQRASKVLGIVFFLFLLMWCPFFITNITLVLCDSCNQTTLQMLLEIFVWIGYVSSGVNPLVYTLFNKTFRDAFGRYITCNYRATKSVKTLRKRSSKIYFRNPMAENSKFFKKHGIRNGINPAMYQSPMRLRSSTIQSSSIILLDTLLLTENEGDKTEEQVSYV

| Structure (SMILES) | Ratio Ki [1] | Ratio Ki [2] | Ki [3] [nM] | EC50 [4] [nM] | Ki [5] [nM] | Ki [6] [nM] | Ki [7] [nM] | Ki [8] [nM] | Ki [9] [nM] | Ratio Ki (Homo sapiens [10]) | Ratio Ki (Homo sapiens [11]) | Ratio Ki (Homo sapiens [12]) | Ratio Ki (Homo sapiens [13]) | Ratio Ki (Homo sapiens [14]) | Ratio Ki (Homo sapiens [15]) |
| --- | --- | --- | --- | --- | --- | --- | --- | --- | --- | --- | --- | --- | --- | --- | --- |
| Cc1[nH]c2ccc(Cl)cc2c1CCN(C)C | 8 | 10 | 28.8 | 44.8 | 300 | 300 | 290 | 245 | 300 |  |  |  |  |  |  |
| CN(C)CCc1cn(S(=O)(=O)c2ccccc2)c2ccccc12 |  |  |  |  |  |  |  |  |  | > 100 | > 100 | > 100 | > 100 | > 100 | > 100 |

Source: ChEMBL document CHEMBL3621167, “Therapeutic Potential of 5-HT6 Receptor Agonists” (J Med Chem, 2015)
